Measured values as given in US20230272465A1, “Systems and Methods to Enhance RNA Transcription and Uses Thereof” (The Board of Trustees of the Leland Stanford Junior …, priority 2020, published 2023).
Entries after “also recorded” stand apart in the source; their conditions may differ.

Legend:
Assay type in all cases: biochemical
T7 RNA polymerase [1] = biological target: T1, T7 RNA polymerase (Escherichia phage T7, UniProt P00573); assay: Real-time RNA transcription reaction with T7 polymerase (fluorescence, TECAN plate reader); conditions: 10 mM VRC, room temperature (~20° C.), 9000 seconds, FIG. 1A
Description: Methods: A series of standard RNA transcription reactions were performed using T7 polymerase spiked with 0 mM, 0.1 mM, 1 mM, and 10 mM VRC. The reaction was performed at room temperature (˜20° C.) for 9000 seconds in a TECAN plate reader. Reaction yield was measured in reach reaction by measuring fluorescence in real-time using the TECAN plate reader.

T7 RNA polymerase [2] = biological target: T1, T7 RNA polymerase; assay: RNA yield after post-reaction clean-up, T7 polymerase transcription (NanoDrop UV-Vis); conditions: 37° C., 4 hours, FIG. 2
Description: Methods: A series of standard RNA transcription reactions were performed using T7 polymerase spiked with 0 mM, 0.1 mM, 1 mM, and 10 mM VRC. The reaction was performed at 37° C. for 4 hours in a thermocycler. A post-reaction clean-up was used to remove any reagents, including enzymes, NTPs, buffers. The reaction was quantified using a NanoDrop UV-Vis spectrometer.

SP6 RNA polymerase = biological target: T2, SP6 RNA polymerase (Enterobacteria phage SP6, UniProt P06221); assay: Real-time monitoring of SP6 RNA polymerase transcription reaction; conditions: FIG. 1B
T2 sequence (P06221 1-874): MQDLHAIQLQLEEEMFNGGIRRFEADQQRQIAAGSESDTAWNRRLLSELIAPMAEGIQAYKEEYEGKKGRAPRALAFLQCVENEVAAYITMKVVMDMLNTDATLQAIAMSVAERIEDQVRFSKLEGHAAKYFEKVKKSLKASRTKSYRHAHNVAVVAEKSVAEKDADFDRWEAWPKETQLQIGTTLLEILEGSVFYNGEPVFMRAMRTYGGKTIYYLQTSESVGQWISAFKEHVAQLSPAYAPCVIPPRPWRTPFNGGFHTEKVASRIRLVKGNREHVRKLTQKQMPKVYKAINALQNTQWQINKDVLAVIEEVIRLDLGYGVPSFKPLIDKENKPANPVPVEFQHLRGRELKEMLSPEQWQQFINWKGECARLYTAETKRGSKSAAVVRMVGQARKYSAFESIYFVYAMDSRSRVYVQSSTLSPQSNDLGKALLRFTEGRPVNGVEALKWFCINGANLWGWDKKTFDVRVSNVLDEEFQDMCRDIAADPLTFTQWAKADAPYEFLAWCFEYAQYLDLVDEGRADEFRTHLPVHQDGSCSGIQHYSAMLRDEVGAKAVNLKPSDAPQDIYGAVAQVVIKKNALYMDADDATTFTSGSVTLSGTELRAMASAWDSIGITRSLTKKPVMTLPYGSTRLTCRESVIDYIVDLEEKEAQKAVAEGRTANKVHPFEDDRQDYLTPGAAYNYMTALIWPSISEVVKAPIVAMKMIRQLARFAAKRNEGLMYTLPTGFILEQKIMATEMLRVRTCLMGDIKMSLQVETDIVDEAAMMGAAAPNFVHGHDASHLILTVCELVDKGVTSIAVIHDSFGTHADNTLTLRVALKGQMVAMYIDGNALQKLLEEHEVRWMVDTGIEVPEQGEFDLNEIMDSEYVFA
Description: Turning to FIGS. 1A-1B, exemplary data of RNA yield measured from real time monitoring of RNA transcription reactions in accordance with certain embodiments are illustrated. In particular, FIG. 1A illustrates exemplary T7 RNA polymerase transcription reaction embodiments using 0.1 mM, 1 mM, and 10 mM concentrations of VRC against a 0 mM control.
However, FIG. 1B illustrates exemplary SP6 RNA polymerase transcription reaction embodiments using 0.1 mM, 1 mM, and 10 mM concentrations of VRC against a 0 mM control.

T7 RNA polymerase [3] = biological target: T1, T7 RNA polymerase; assay: Gel electrophoresis of T7 transcription reaction products; conditions: 0.1 mM, 1 mM, 10 mM VRC versus 0 mM control; FIG. 3
Description: Methods: A series of standard RNA transcription reactions were performed using T7 polymerase spiked with 0 mM, 0.1 mM, 1 mM, and 10 mM VRC. Post-incubation, the contents of each reaction were electrophoresed on a gel to qualitatively identify reaction product sizes.

T1 sequence (P00573 whole entry): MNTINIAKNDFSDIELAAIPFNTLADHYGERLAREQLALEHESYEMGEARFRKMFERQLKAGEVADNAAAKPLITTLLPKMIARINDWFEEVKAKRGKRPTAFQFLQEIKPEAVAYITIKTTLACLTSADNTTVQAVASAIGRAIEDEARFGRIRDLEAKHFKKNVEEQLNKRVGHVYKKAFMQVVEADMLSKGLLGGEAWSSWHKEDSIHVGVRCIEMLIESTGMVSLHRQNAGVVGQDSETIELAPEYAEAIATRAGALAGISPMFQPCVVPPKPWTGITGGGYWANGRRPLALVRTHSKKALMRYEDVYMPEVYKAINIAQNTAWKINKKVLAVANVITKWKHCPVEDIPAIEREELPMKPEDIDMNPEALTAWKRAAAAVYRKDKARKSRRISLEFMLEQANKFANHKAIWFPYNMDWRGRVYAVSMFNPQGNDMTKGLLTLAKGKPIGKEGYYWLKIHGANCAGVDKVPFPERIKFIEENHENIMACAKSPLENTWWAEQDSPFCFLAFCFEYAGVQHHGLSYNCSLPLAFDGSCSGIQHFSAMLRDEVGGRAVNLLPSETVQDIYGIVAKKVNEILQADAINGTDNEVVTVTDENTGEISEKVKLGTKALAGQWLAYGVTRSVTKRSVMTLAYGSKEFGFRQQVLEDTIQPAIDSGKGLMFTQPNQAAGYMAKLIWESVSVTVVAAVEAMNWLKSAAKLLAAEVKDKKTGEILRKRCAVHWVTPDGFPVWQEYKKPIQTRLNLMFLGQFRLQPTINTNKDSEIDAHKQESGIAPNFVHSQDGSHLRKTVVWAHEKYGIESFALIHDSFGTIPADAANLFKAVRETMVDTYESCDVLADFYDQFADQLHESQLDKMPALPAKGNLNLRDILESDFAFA

Substance: ribonucleoside vanadyl complex [VRC]
- increase in RNA yield over 0 mM control (T7 RNA polymerase [1]): ~1.5 fold
- increase in RNA yield over 0 mM control (T7 RNA polymerase [2]; 0.1 mM VRC): approximately 2.3 fold
- increase in RNA yield over 0 mM control (T7 RNA polymerase [2]; 1 mM VRC): approximately 1.7 fold
- increase in RNA yield over 0 mM control (T7 RNA polymerase [2]; 10 mM VRC): approximately 1.5 fold
- RNA yield versus 0 mM control (SP6 RNA polymerase; 0.1 mM VRC): no advantage in yield over the control
- RNA yield versus 0 mM control (SP6 RNA polymerase; 1 mM VRC): inhibition of SP6 RNA polymerase
- RNA yield versus 0 mM control (SP6 RNA polymerase; 10 mM VRC): inhibition of SP6 RNA polymerase
- reaction product sizes / degradation products on gel (T7 RNA polymerase [3]): no degradation of products; also recorded: no discernable differences in product sizes
